Tested on: H9
Test: Compound was found to have no significant inhibitory activity against HIV in H9 cells
Format: functional, cell-based
Details: Homo sapiens

In the case of `Cc1cn(C2CC(CO)C(O)C2F)c(=O)[nH]c1=O` (configuration not stated), the Activity is reported as “No significant inhibitory activity against HIV in H9 cells”.
In the case of `Cn1cc([C@H]2C[C@H](N=[N+]=[N-])[C@@H](CO)O2)c(=O)[nH]c1=O`, the Activity is reported as “No significant inhibitory activity against HIV in H9 cells”.
